The results in this text go back to EP1204866B1, “IMMUNOASSAY FOR PESTICIDES AND THEIR DEGRADATION PRODUCTS” (priority 1999, dated 2001).

One test relates to HYB 273-1. Briefly: competitive ELISA (immunoassay) for BAM with monoclonal antibody on hapten-coated microtitre plates. It is filed as binding, mice. The procedure:
The cross reactivity of an assay is a measure of its specificity for the analyte relative to similar or related compounds. It is useful in assessing its accuracy in crude samples with several potential haptens. Standard curves based on the 4-parameter-logistic equation (eq 1) were generated for a series of analytes (Table 3) in the range 100 to 0 mg/L (10-fold titrations). The IC50 value (C*) for each analyte was then compared with the IC50 of BAM (C) in equation 3. CR = ((C)/(C*)) × 100% [formula] • CR: cross-reactivity [%] • C: value of IC50 for BAM [µg/L] • C*: value of IC50 for cross-reacting analyte [µg/L]
Standards were used to generate comparative standard curves. The standards were added to hapten-coated plates followed by a known amount of antibody, such as HYB 273-1 in buffer. The plate was incubated for 1 hour, washed, and incubated with RαM^HRP, an enzyme label and incubated for 1 hour. After extensive washing, the enzyme substrate TMB-Plus was added. The colour development was stopped using acid and the absorbance read at 450 nm.
The standards were used to generate a semi-log graph based on the 4-parameter-logistic method (Rodbard, 1974: equation 1). Y = ((A-D))/([1+(((X)/(C)))^B]) + D [formula] • X: concentration of analyte (µg/L). • Y: absorbance at 450 nm (A450). • A: maximum absorbance (upper asymptote). • D: minimum absorbance (lower asymptote). • C: midpoint between A and D. Extrapolation to x-axis yields the value of IC50 (µg/L). • B: slope for the transition between A and D
The signals were normalised according to equation 2 %(B)/(B0) = (A-Axs)/(A0 -Axs) × 100 [formula] • B : concentration of bound antibody and • B0 : concentration of bound antibody in the absence of analyte.
On the plot, 100 % corresponds to the absorption of the zero control (A0: 0 µg/L) and 0 % corresponds to the absorption of an excess control (Axs: 100 µg/L). The normalised signals were plotted vs. BAM concentration and the four-parameter-logistic equation (eq 1) was fitted to the experimental points.
i) Passive adsorption: A MaxiSorp™ microtitre plate was filled by a stationary dispensor with 200 µL/well BAM-OA (16.7 ng/mL) in coating buffer. After coating over night at 4°C the plate was washed 4 times with de-ionised water and dried 30 min at 37°C. The plate was either used immediately or sealed with tape lid and stored at room temperature in the dark until use.
A PolySorp™microtitre plate was filled by a stationary dispensor with 200 µL/well BAM-OA-AQ (50 ng/mL) in 0.1 × PBS. After being exposed to uv-light (300-400 nm) at 34°C for 30 min, the plate was washed 4 times with de-ionised water and dried 30 min at 37°C. […]
Standards (in Milli-Q® water) and samples (150 µL) were added to the hapten-coated plate followed by the addition of 50 µL antibody (HYB 273-1) diluted in 10 × PBST (66.7 ng/mL). […] The colour development was stopped after 10 minutes by adding 50 µL/well 1 M H2SO4 and the absorbance was read at 450 nm. […] Y = ((A-D))/([1+(((X)/(C)))^B]) + D [formula] • X: concentration of analyte (µg/L). • Y: absorbance at 450 nm (A450). • A: maximum absorbance (upper asymptote). • D: minimum absorbance (lower asymptote). • C: midpoint between A and D. Extrapolation to x-axis yields the value of IC50 (µg/L). • B: slope for the transition between A and D
These calculations were executed automatically by the software package SOFTmax® PRO Version 2.2 upon reading the microtitre plates. […]
Background: In an ELISA, binding on a coated surface is turned into a signal by an enzyme label.

Test [1] relates to Balb/c×CF1 F1-hybrid mice. Nature of the test: immunisation of mice with hapten-polymer carrier complex and generation of monoclonal antibodies. The settings on record: hapten bound to polymer carrier (ovalbumin). It is filed as in vivo. The procedure:
Live mice were primed for immunisation by an intraperitoneal injection of live BCG-vaccine one month before immunisation. The antigen (hapten-OA complex), once adsorbed onto Al(OH)3, was injected intraperitonally and test bleedings were collected. When antibody titre's exceeded 1:2000, mice were considered ready for fusion and the method described by Köhler and Milstein (1975) was employed with minor modifications. Monoclonal antibodies were selected on basis of titre, affinity and specificity. Selected clones were recloned until monoclonality and stored frozen at -80 °C.
Ten to twelve weeks old female Balb/c×CF1 F1-hybrid mice were used for immunisation. 5 One month before immunisation they were primed with 0.2 mL live BCG-vaccine intraperitonally. The antigen ([…] carrier/immunogen) was absorbed onto Al(OH)3 as an adjuvant. The total volume of vaccine per immunisation was 200 µL, containing […] of antigen and […] of adjuvant. The antigen was injected intraperitonally with 2-weeks intervals. Test bleedings were collected 10 days after immunisation and assayed in ELISA.
When antibody titre's exceeded 1:2000, mice were regarded ready for fusion. The procedure as described by Köhler and Milstein (1975) was employed with minor modifications. Monoclonal antibodies were selected on basis of titre, affinity and specificity. […]

Values joined by “and” are separate entries in the source; they are usually repeats but may differ in a detail not shown here. Identical values can stand only once. “Also recorded” adds a separate entry of the source.

In the test with HYB 273-1 (IC50 of BAM divided by IC50 of analyte x 100, analytes assayed up to 100 mg/L, antibody HYB 273-1), `NC(=O)c1ccc(Cl)cc1Cl` [2,4-dichlorobenzamide] had a cross-reactivity of 3.8%.

`NC(=O)c1c(Cl)cccc1Cl` [BAM, 2,6-dichlorobenzamide]: the half-inhibitory concentration (IC50) is 0.189 ng/mL and 0.19 ng/mL with HYB 273-1 (covalently immobilised (photocoupled) plates, PolySorp, BAM-OA-AQ, Figure 3A); 0.144 ng/mL and 0.14 ng/mL in the test on HYB 273-1 (passively adsorbed plates, MaxiSorp, BAM-OA, Figure 3B). The “DL15 (detection limit, analyte concentration giving a 15 % decrease in maximum signal)” value is 0.02 µg/L in the test on HYB 273-1 (photo catalysed covalent immobilisation, Figure 3A) and 0.045 µg/L in the test with HYB 273-1 (surfaces immobilised by passive adsorption, Figure 3B).

As to “N-(5-carboxypentyl)-2,4-dichloro-3-amido aniline [EQ-0031]”, the immunoresponse on immunisation result in test [1] was “good responses were generated and several clones were produced; also recorded: generated good immunoresponse”.

What is called IC50 is the midpoint of a concentration-inhibition curve.
